Measured values published in PubChem BioAssay (NCI).
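Results reflect a 48-hour exposure of cells in 96-well plates to compound at five concentrations. TGI: total growth inhibition.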

What was measured:
Test in all cases: NCI tumour cell line growth inhibition, 48 h
786-0 renal = tested on: 786-0 renal
A498 renal = tested on: A498 renal
A549 NSCLC = tested on: A549 NSCLC
ACHN renal = tested on: ACHN renal
BT-549 breast = tested on: BT-549 breast
CAKI-1 renal = tested on: CAKI-1 renal
CCRF-CEM leukemia = tested on: CCRF-CEM leukemia
COLO 205 colon = tested on: COLO 205 colon
DU-145 prostate = tested on: DU-145 prostate
EKVX NSCLC = tested on: EKVX NSCLC
HCT-116 colon = tested on: HCT-116 colon
HCT-15 colon = tested on: HCT-15 colon
HL-60(TB) leukemia = tested on: HL-60(TB) leukemia
HOP-62 NSCLC = tested on: HOP-62 NSCLC
HOP-92 NSCLC = tested on: HOP-92 NSCLC
HS 578T breast = tested on: HS 578T breast
HT29 colon = tested on: HT29 colon
IGROV1 ovarian = tested on: IGROV1 ovarian
K-562 leukemia = tested on: K-562 leukemia
KM12 colon = tested on: KM12 colon
LOX IMVI melanoma = tested on: LOX IMVI melanoma
M14 melanoma = tested on: M14 melanoma
MALME-3M melanoma = tested on: MALME-3M melanoma
MCF7 breast = tested on: MCF7 breast
MDA-MB-231 breast = tested on: MDA-MB-231 breast
MDA-MB-435 = tested on: MDA-MB-435
MDA-N = tested on: MDA-N
MOLT-4 leukemia = tested on: MOLT-4 leukemia
NCI-H226 lung = tested on: NCI-H226 lung
NCI-H23 lung = tested on: NCI-H23 lung
NCI-H460 lung = tested on: NCI-H460 lung
NCI-H522 lung = tested on: NCI-H522 lung
NCI/ADR-RES ovarian = tested on: NCI/ADR-RES ovarian
OVCAR-3 ovarian = tested on: OVCAR-3 ovarian
OVCAR-4 ovarian = tested on: OVCAR-4 ovarian
OVCAR-5 ovarian = tested on: OVCAR-5 ovarian
OVCAR-8 ovarian = tested on: OVCAR-8 ovarian
PC-3 prostate = tested on: PC-3 prostate
RPMI-8226 leukemia = tested on: RPMI-8226 leukemia
RXF 393 renal = tested on: RXF 393 renal
SF-268 CNS = tested on: SF-268 CNS
SF-295 CNS = tested on: SF-295 CNS
SF-539 CNS = tested on: SF-539 CNS
SK-MEL-2 melanoma = tested on: SK-MEL-2 melanoma
SK-MEL-28 melanoma = tested on: SK-MEL-28 melanoma
SK-MEL-5 melanoma = tested on: SK-MEL-5 melanoma
SK-OV-3 ovarian = tested on: SK-OV-3 ovarian
SN12C renal = tested on: SN12C renal
SNB-19 CNS = tested on: SNB-19 CNS
SNB-75 CNS = tested on: SNB-75 CNS
SR leukemia = tested on: SR leukemia
SW-620 colon = tested on: SW-620 colon
T-47D breast = tested on: T-47D breast
TK-10 renal = tested on: TK-10 renal
U251 CNS = tested on: U251 CNS
UACC-257 melanoma = tested on: UACC-257 melanoma
UACC-62 melanoma = tested on: UACC-62 melanoma
UO-31 renal = tested on: UO-31 renal
HCC-2998 colon = tested on: HCC-2998 colon

COC(=O)CNC(=O)C(Cc1ccccc1)NC(=O)c1ccc(-c2ccc(Cl)cc2Cl)o1 (stereo not given) showed a TGI (786-0 renal) of 38.7 µM, a TGI (A498 renal) of 38.8 µM and a TGI (A549 NSCLC) of over 100 µM. For the same compound, the TGI (ACHN renal) was 66.5 µM, the TGI (BT-549 breast) was over 100 µM and the TGI (CAKI-1 renal) was 77.6 µM. The TGI (CCRF-CEM leukemia) was 39.5 µM, the TGI (COLO 205 colon) was 30.2 µM and the TGI (DU-145 prostate) was over 100 µM. For the same compound, the TGI (EKVX NSCLC) was 78.6 µM, the TGI (HCT-116 colon) was 43.2 µM and the TGI (HCT-15 colon) was 89.4 µM. It also gave a TGI (HL-60(TB) leukemia) of 41.2 µM, a TGI (HOP-62 NSCLC) of 78.8 µM and a TGI (HOP-92 NSCLC) of 39.1 µM. For the same compound, the TGI (HS 578T breast) was 52.1 µM, the TGI (HT29 colon) was 52.7 µM and the TGI (IGROV1 ovarian) was over 100 µM. It also gave a TGI (K-562 leukemia) of over 100 µM, a TGI (KM12 colon) of 91.2 µM and a TGI (LOX IMVI melanoma) of 69 µM. It also gave a TGI (M14 melanoma) of over 100 µM, a TGI (MALME-3M melanoma) of 87.4 µM and a TGI (MCF7 breast) of 62.1 µM. For the same compound, the TGI (MDA-MB-231 breast) was 52.4 µM, the TGI (MDA-MB-435) was over 100 µM and the TGI (MDA-N) was 86.8 µM. It also gave a TGI (MOLT-4 leukemia) of 49.2 µM, a TGI (NCI-H226 lung) of over 100 µM and a TGI (NCI-H23 lung) of over 100 µM. It also gave a TGI (NCI-H460 lung) of 40.3 µM, a TGI (NCI-H522 lung) of 43.3 µM and a TGI (NCI/ADR-RES ovarian) of over 100 µM. It also gave a TGI (OVCAR-3 ovarian) of 72.5 µM, a TGI (OVCAR-4 ovarian) of over 100 µM and a TGI (OVCAR-5 ovarian) of over 100 µM. It also gave a TGI (OVCAR-8 ovarian) of over 100 µM, a TGI (PC-3 prostate) of over 100 µM and a TGI (RPMI-8226 leukemia) of 51.9 µM. It also gave a TGI (RXF 393 renal) of 73.5 µM, a TGI (SF-268 CNS) of 69.8 µM and a TGI (SF-295 CNS) of 64.3 µM. It also gave a TGI (SF-539 CNS) of over 100 µM, a TGI (SK-MEL-2 melanoma) of 96.6 µM and a TGI (SK-MEL-28 melanoma) of over 100 µM. The TGI (SK-MEL-5 melanoma) was over 100 µM, the TGI (SK-OV-3 ovarian) was 84.2 µM and the TGI (SN12C renal) was over 100 µM. For the same compound, the TGI (SNB-19 CNS) was over 100 µM, the TGI (SNB-75 CNS) was over 100 µM and the TGI (SR leukemia) was 36 µM. For the same compound, the TGI (SW-620 colon) was over 100 µM, the TGI (T-47D breast) was over 100 µM and the TGI (TK-10 renal) was 75.2 µM. For the same compound, the TGI (U251 CNS) was over 100 µM, the TGI (UACC-257 melanoma) was 57.5 µM and the TGI (UACC-62 melanoma) was 65.1 µM. The TGI (UO-31 renal) was over 100 µM.
With Cc1ccc(/C=C/C(=O)Oc2ccc(/C=C3\CCC/C(=C\c4ccc(OC(=O)/C=C/c5ccc(C)cc5)cc4)C3=O)cc2)cc1 the TGI (786-0 renal) was 81 µM, the TGI (A549 NSCLC) was over 100 µM and the TGI (ACHN renal) was over 100 µM. It also gave a TGI (BT-549 breast) of over 100 µM, a TGI (CAKI-1 renal) of over 100 µM and a TGI (CCRF-CEM leukemia) of over 100 µM. It also gave a TGI (COLO 205 colon) of over 100 µM, a TGI (DU-145 prostate) of over 100 µM and a TGI (EKVX NSCLC) of over 100 µM. The TGI (HCC-2998 colon) was over 100 µM, the TGI (HCT-116 colon) was over 100 µM and the TGI (HCT-15 colon) was over 100 µM. For the same compound, the TGI (HL-60(TB) leukemia) was over 100 µM, the TGI (HOP-62 NSCLC) was over 100 µM and the TGI (HOP-92 NSCLC) was over 100 µM. The TGI (HS 578T breast) was over 100 µM, the TGI (HT29 colon) was over 100 µM and the TGI (KM12 colon) was over 100 µM. For the same compound, the TGI (LOX IMVI melanoma) was over 100 µM, the TGI (M14 melanoma) was over 100 µM and the TGI (MCF7 breast) was over 100 µM. For the same compound, the TGI (MDA-MB-231 breast) was over 100 µM, the TGI (MDA-MB-435) was over 100 µM and the TGI (MDA-N) was over 100 µM. The TGI (MOLT-4 leukemia) was over 100 µM, the TGI (NCI-H23 lung) was over 100 µM and the TGI (NCI-H460 lung) was over 100 µM. The TGI (NCI-H522 lung) was over 100 µM, the TGI (NCI/ADR-RES ovarian) was over 100 µM and the TGI (OVCAR-3 ovarian) was over 100 µM. The TGI (OVCAR-4 ovarian) was over 100 µM, the TGI (OVCAR-5 ovarian) was over 100 µM and the TGI (OVCAR-8 ovarian) was over 100 µM. For the same compound, the TGI (PC-3 prostate) was over 100 µM, the TGI (RPMI-8226 leukemia) was over 100 µM and the TGI (SF-268 CNS) was over 100 µM. It also gave a TGI (SF-295 CNS) of over 100 µM, a TGI (SF-539 CNS) of over 100 µM and a TGI (SK-MEL-2 melanoma) of over 100 µM. It also gave a TGI (SK-MEL-28 melanoma) of over 100 µM, a TGI (SK-MEL-5 melanoma) of over 100 µM and a TGI (SN12C renal) of over 100 µM. For the same compound, the TGI (SNB-19 CNS) was over 100 µM, the TGI (SNB-75 CNS) was 36.3 µM and the TGI (SR leukemia) was 96.4 µM. The TGI (SW-620 colon) was over 100 µM, the TGI (T-47D breast) was over 100 µM and the TGI (TK-10 renal) was over 100 µM. It also gave a TGI (U251 CNS) of over 100 µM, a TGI (UACC-257 melanoma) of over 100 µM and a TGI (UACC-62 melanoma) of over 100 µM. The TGI (UO-31 renal) was over 100 µM.
